From patent EP1428528A1, “Synergistic combinations of dietary fiber and NSAIDs for the treatment of cancer” (Tiense Suikerraffinaderij N.V., priority 2002, dated 2004)
Marks after values point to notes of the source that are not given here.

What was measured:
[1] = system: azoxymethane-induced aberrant crypt foci in rat colon; assay: Aberrant crypt foci (ACF) study in azoxymethane-treated rats, Example 1; assay type: in vivo, male Fisher 344 weanling rats; conditions: for Total ACF / Number of foci with 1 aberrant crypt per focus / Number of foci with 2 aberrant crypts per focus / Number of foci with 3 aberrant crypts per focus / Number of foci with 4 aberrant crypts per focus / Number of foci with 5(+) (5 and more) aberrant crypts per focus: Example 1, Table 3; for Total ACF / Number of foci with 1 aberrant crypt per focus / Number of foci with 2 aberrant crypts per focus / Number of foci with 3 aberrant crypts per focus / Number of foci with 4 aberrant crypts per focus / Number of foci with 5(+) (5 and more) aberrant crypts per focus / Number of AOM-induced ACF in rat colon in proximal part / Number of AOM-induced ACF in rat colon in distal part / Number of AOM-induced ACF in rat colon in total ACF in colon: Means ± SE, n=10; for Number of foci with 1 aberrant crypt per focus / Number of foci with 2 aberrant crypts per focus / Number of foci with 3 aberrant crypts per focus / Number of foci with 4 aberrant crypts per focus / Number of foci with 5(+) (5 and more) aberrant crypts per focus: proximal and distal colon; for Number of AOM-induced ACF in rat colon in proximal part / Number of AOM-induced ACF in rat colon in distal part / Number of AOM-induced ACF in rat colon in total ACF in colon: diet 13 weeks, inulin 100 g/kg and/or NSAID 0.2 g/kg diet; for Number of AOM-induced ACF in rat colon in proximal part: AOM 16mg/kg s.c. at 7 and 8 weeks of age; for Number of AOM-induced ACF in rat colon in distal part / Number of AOM-induced ACF in rat colon in total ACF in colon: AOM 16mg/kg s.c.
Method: The inulin used was Synergy1 (in short Syn1) and Synergy2 (in short Syn2), which are mixtures of oligofructose (RAFTILOSE®) and inulin of av. DP of 23 to 25 (RAFTILINE®) with a total content of inulin with a DP 9 and DP 10 of maximally 5 % by weight, at a weight ratio of 1:1 and 1:2, respectively, obtained from ORAFTI (Belgium) (RAFTILOSE® and RAFTILINE® are trade names of RT/TS, Belgium). The diets were prepared fresh every week and stored at 4°C until fed. The experimental diets were formulated based on AIN 93G diets. The ingredients were obtained from ICN Biomedicals, Aurora, OH, USA. All other chemicals were obtained from Sigma Chemical Co., St. Louis, MO, USA. All the protocols involving rats have been approved by the Institutional Animal Care and Use Committee of Alabama A& M University.
(§1) After 1 week of acclimatisation, 100 male Fisher 344 weanling rats were divided into 10 groups of 10 rats per group and assigned the AIN93G (Control) diet or the experimental diets for 13 weeks. For the study, temperature was maintained at 21°C ± 1°C, relative humidity at 50%, and light and dark cycles at 12 hours each. Feed and water were provided ad libitum. Weekly body weights and daily feed intake were recorded. After adaptation, all animals received two subcutaneous injections of azoxymethane (AOM) in saline at 16mg/kg body weight at 7 and 8 weeks of age. At the end of the feeding period, the animals were sacrificed using CO2 euthanasia after an overnight's fast. Accordingly, the colons of the rats were removed, flushed with potassium phosphate buffer 0.1M (pH 7.2) and examined for aberrant crypt foci (ACF) and tumours.

[2] = system: azoxymethane-induced aberrant crypt foci in rat colon; assay: Aberrant crypt foci (ACF) study in azoxymethane-treated rats, Example 2 (same protocol as Example 1); assay type: in vivo, Fisher 344 male rats
Method: as §1
In example 2, experiments similar to the ones of example 1 were carried out, to examine the anti-cancer effects of a composition containing a combination of RAFTILINE® HP and sulindac. The 4 groups each of 10 Fisher 344 male rats were given a diet containing either control diet, control diet + RAFTILINE®HP, control diet + sulindac, or control diet + RAFTILINE®HP + sulindac (RAFTILINE® : trade name of RT/TS, Belgium). The protocol of the experiments was the same as the one of example 1.

colorectal adenomas = conditions: patients with familial adenomatous polyposis; cited from earlier work
[3] = Example 2, Table 6, Means ± SEM
[4] = Example 2, inulin 100 g/kg and/or sulindac 0.2 g/kg diet, Means ± SE, n as indicated

| Compound | Total ACF [1] | Number of foci with 1 aberrant crypt per focus [1] | Number of foci with 2 aberrant crypts per focus [1] | Number of foci with 3 aberrant crypts per focus [1] | Number of foci with 4 aberrant crypts per focus [1] | Number of foci with 5(+) (5 and more) aberrant crypts per focus [1] | Number of AOM-induced ACF in rat colon in proximal part ([1]; Example 1) | Number of AOM-induced ACF in rat colon in distal part ([1]; Example 1) | Number of AOM-induced ACF in rat colon in total ACF in colon ([1]; Example 1) | also measured |
| --- | --- | --- | --- | --- | --- | --- | --- | --- | --- | --- |
| CC(=O)Oc1ccccc1C(=O)O [Aspirin, acetyl salicylate] | 64.40 ± 3.46^c | 6.50 ± 1.12^b | 12.48 ± 1.23^b | 17.42 ± 1.94^b | 15.86 ± 1.82^c | 12.14 ± 0.86^b | 10.26 ± 1.11^b | 54.14 ± 1.96^b | 64.40 ± 3.46^c |  |
| CN1C(C(=O)Nc2ccccn2)=C(O)c2ccccc2S1(=O)=O [Piroxicam] | 62.64 ± 2.86^c | 4.18 ± 1.04^c | 13.16 ± 1.54^b |  | 14.78 ± 1.94^c | 14.24 ± 0.94^b | 12.16 ± 1.04^b | 50.48 ± 1.09^b | 62.64 ± 2.86^c |  |
| CC1=C(CC(=O)O)c2cc(F)ccc2/C1=C\c1ccc([S+](C)[O-])cc1 (centres unmarked) [Sulindac] | 73.87 ± 4.25 ^b | 4.08 ± 0.48^c | 12.14± 2.04^b | 20.37 ± 2.40^b | 20.48 ± 2.48^b | 16.80 ± 0.78^b | 11.24 ± 0.90^b | 62.58 ± 1.68^b | 73.87 ± 4.25 ^b | overall reduction in ACF (total colon) compared to the control diet ([2]; Example 2): about 52%; reduction of ACF in the distal colon compared to the control diet group ([2]; Example 2): about 44%; reduction of ACF in the proximal colon compared to the control diet group ([2]; Example 2): about 74%; Number of foci with 1 aberrant crypt per focus [2, 3]: 3.50 ± 0.38 ^b; Number of foci with 2 aberrant crypts per focus [2, 3]: 11.67 ± 1.19^b; Number of foci with 3 aberrant crypts per focus [2, 3]: 22.17± 1.03 ^c; Number of foci with 4 aberrant crypts per focus [2, 3]: 22.50 ± 0.86^b; Number of foci with 5(+) (5 and more) aberrant crypts per focus [2, 3]: 15.33 ± 0.45 ^c; Total ACF [2, 3]: 75.08 ± 1.93^d; foci with 3, 4 and 5 or more aberrant crypts compared to the other groups ([2]; Example 2, statement in text): significantly lower (p<0.05); Number of AOM-induced ACF in rat colon in distal part [2, 4]: 64.50 ± 1.54^d; Number of AOM-induced ACF in rat colon in proximal part [2, 4]: 10.58 ± 0.90^c; Number of AOM-induced ACF in rat colon, Total ACF in colon [2, 4]: 75.1 ± 1.93; number and size of colorectal adenomas compared to patients given placebo (colorectal adenomas): significantly reduce the number and size of colorectal adenomas; reduction of the incidence of ACF compared to the controls ([1]; Example 1, inulin at 10 % level and/or NSAID in diet): about 53% |
